# Like-named read-outs stand apart in the source and are kept apart here.
# Assays:
# Format in all cases: cell-based
# Proteus vulgaris = experiment: General antimicrobial activity, 5-fold serial dilution test in agar (MIC); details: 37° C., 48 hours, growth only at lower concentration of range, read-out: minimum inhibitory concentration (MIC), B4
# Method: (§1) General antibacterial and antifungal activity was evaluated by a 5-fold serial dilution test in agar. In this test, compounds were prepared as 6% solutions in dimethylformamide or ethanol. The 6% solution was then 5-fold serially diluted in test tubes to give the desired concentrations when mixed with agar and poured into sterile Petri dishes. Tryptone glucose extract agar was used for the bacterial testing; mildew glucose agar for the fungal testing. The bacterial plates were spot inoculated with 24-hour nutrient broth cultures and incubated at 37° C. for 48 hours. The fungal plates were spot inoculated with spore suspensions and incubated at 28° C. for seven days. At the end of the incubation periods, all plates were examined for growth. The minimum inhibitory concentration (MIC) for each organism is expressed in Table I. In the ranges presented, growth is observed only at the lower concentration.
# (§2) The activity is presented in Tabular Form (Table I) using the following key.
# Staphylococcus aureus = experiment: as above; details: 37° C., 48 hours, growth only at lower concentration of range, read-out: minimum inhibitory concentration (MIC), B1
# Method: as §1, §2
# Pseudomonas aeruginosa [1] = experiment: as above; details: 37° C., 48 hours, growth only at lower concentration of range, read-out: minimum inhibitory concentration (MIC), B3
# Method: as §1, §2
# Aspergillus niger [2] = experiment: as above; details: 168 h, 28° C., seven days, growth only at lower concentration of range, read-out: minimum inhibitory concentration (MIC), F1
# Method: as §1, §2
# Penicillium piscarium = experiment: as above; details: 168 h, 28° C., seven days, growth only at lower concentration of range, read-out: minimum inhibitory concentration (MIC), F3
# Method: as §1, §2
# Bacillus subtilis = experiment: as above; details: 37° C., 48 hours, growth only at lower concentration of range, read-out: minimum inhibitory concentration (MIC), B5
# Method: as §1, §2
# Aureobasidium pullulans = experiment: as above; details: 168 h, 28° C., seven days, growth only at lower concentration of range, read-out: minimum inhibitory concentration (MIC), F4
# Method: as §1, §2
# Aspergillus oryzae = experiment: as above; details: 168 h, 28° C., seven days, growth only at lower concentration of range, read-out: minimum inhibitory concentration (MIC), F2
# Method: as §1, §2
# Escherichia coli = experiment: as above; details: 37° C., 48 hours, growth only at lower concentration of range, read-out: minimum inhibitory concentration (MIC), B2
# Method: as §1, §2
# P. aeruginosa = experiment: Effectiveness as slimicide for pulp and paper mill water systems; details: 62.5 = lowest concentration tested, no growth at it
# Method: (§3) Various quantities of a 6% solution of this compound in dimethylformamide were incorporated into 24 ml of a test substrate composed as follows: 84.4 g Whatman No. 2 powdered cellulose 2.6 g Sodium nitrate 1.0 g Calcium sulfate 6.5 g Maltose 1.0 g Nutrient Broth, Difco 10.0 ml Mersize Rm […] (Monsanto) 2.5 ml 2% Alum 900 ml Distilled water The samples were inoculated with four different organisms and incubated at 28° C. At weekly intervals the samples were examined for the presence of microbial growth and reinoculated during a total incubation period of four weeks.
# P. piscarium = experiment: as above; details: read-out: Effectiveness as slimicide (inhibitory concentration range)
# Method: as §3
# E. aerogenes = experiment: as above; details: Klebsiella aerogenes, range: growth at lower, read-out: Effectiveness as slimicide (inhibitory concentration range)
# Method: as §3
# A. niger = experiment: as above; details: range: growth at lower, none at higher, 62.5 = lowest concentration tested, no growth at it
# Method: as §3
# Pseudomonas aeruginosa [3] = experiment: Utility as a cosmetic preservative (cosmetic lotion); details: weekly reinoculation
# Method: (§4) The 2-Chloro-3-oxobutyramide derivatives are effective cosmetic preservatives. Two-fold serial dilutions of 6% solutions of the 2-haloacetoacetic acid derivatives in dimethylformamide were added to a cosmetic lotion of the following formulation: |Stearic acid 1.4 g |Arlacel 60 (sorbitan |monostearate) 0.7 g |Tween 20 Polyoxethylene |(20) sorbitan |monostearate 1.6 g |Distilled water 94.0 g The lotions were inoculated with both Pseudomonas aeruginosa and Aspergillus niger and incubated at 28° C. At weekly intervals, the lotions were examined for microorganisms by conventional streak-plate methods or by macroscopic observation. The lotions were then reinoculated with the test organisms and reincubated.
# Aspergillus niger [4] = experiment: as above; details: weekly reinoculation
# Method: as §4
# Pseudomonas aeruginosa [5] = experiment: Utility in water and oil emulsions (3.3% cutting oil emulsions); details: 28° C., weekly reinoculation, read-out: Minimum Inhibitory Concentration Range
# Method: The utility of the 2-chloro-3-oxobutyramide derivatives in water and oil emulsions is illustrated below using a commercially available cutting oil. In running these tests, two-fold serial dilutions of 6% solutions of the compound in dimethylformamide was added to 3.3% cutting oil emulsions. The emulsions were prepared by diluting with water a commercially available cutting oil concentrate. The emulsions were inoculated with a culture of Pseudomonas aeruginosa and incubated at 28° C. on a rotary shaker. At weekly intervals, the emulsions were examined for bacteria by conventional streak-plate methods. The emulsions were then reinoculated with Pseudomonas aeruginosa and reincubated. […] indicate the activity range for that compound.
# [6] = system: broad spectrum of microorganisms including gram positive bacteria, gram negative bacteria and molds; experiment: Antimicrobial activity, general statement in the text
# [7] = Week 1, 3.3% cutting oil emulsion
# [8] = Week 2, 3.3% cutting oil emulsion
# [9] = Week 3, 3.3% cutting oil emulsion
# [10] = Week 4, 3.3% cutting oil emulsion
compound,measurement,setting,value
"CC(=O)NC(=O)C(Cl)C(C)=O (centres unmarked) [N-Acetyl-2-Chloro-3-oxobutyramide, N-Acetyl-2-chloro-3-oxobutyramide]",MIC,Proteus vulgaris,76.8 to 384 µg/mL
same,MIC,Staphylococcus aureus,76.8 to 384 µg/mL
same,MIC,Pseudomonas aeruginosa [1],15.3 to 76.8 µg/mL
same,MIC,Aspergillus niger [2],76.8 to 384 µg/mL
same,MIC,Penicillium piscarium,76.8 to 384 µg/mL
same,MIC,Bacillus subtilis,76.8 to 384 µg/mL
same,MIC,Aureobasidium pullulans,76.8 to 384 µg/mL
same,MIC,Aspergillus oryzae,76.8 to 384 µg/mL
same,MIC,Escherichia coli,15.3 to 76.8 µg/mL
same,MIC,"P. aeruginosa; Pseudomonas aeruginosa, week 1, 28° C., read-out: Effectiveness as slimicide (inhibitory concentration range)",62.5 µg/mL
same,Effectiveness as slimicide (inhibitory concentration range),"P. aeruginosa; week 2, 28° C.",62.5 µg/mL
same,Effectiveness as slimicide (inhibitory concentration range),"P. aeruginosa; week 3, 28° C.",62.5 µg/mL
same,Effectiveness as slimicide (inhibitory concentration range),"P. aeruginosa; week 4, 28° C.",62.5 µg/mL
same,MIC,"P. piscarium; week 1, 28° C., 62.5 = lowest concentration tested, no growth at it",62.5 µg/mL
same,MIC,"P. piscarium; week 2, 28° C., range: growth at lower, none at higher concentration",62.5 to 125 µg/mL
same,MIC,"P. piscarium; week 3, 28° C., range: growth at lower, none at higher concentration",62.5 to 125 µg/mL
same,MIC,"P. piscarium; week 4, 28° C., range: growth at lower, none at higher concentration",62.5 to 125 µg/mL
same,MIC,"E. aerogenes; week 1, 28° C., none at higher, 62.5 = lowest concentration tested, no growth at it",62.5 to 125 µg/mL
same,MIC,"E. aerogenes; week 2, 28° C., none at higher, 62.5 = lowest concentration tested, no growth at it",125 to 250 µg/mL
same,MIC,"E. aerogenes; week 3, 28° C., none at higher concentration",250 to 500 µg/mL
same,MIC,"E. aerogenes; week 4, 28° C., none at higher concentration",250 to 500 µg/mL
same,MIC,"A. niger; Aspergillus niger, week 1, 28° C., read-out: Effectiveness as slimicide (inhibitory concentration range)",62.5 to 125 µg/mL
same,Effectiveness as slimicide (inhibitory concentration range),"A. niger; week 2, 28° C.",62.5 to 125 µg/mL
same,Effectiveness as slimicide (inhibitory concentration range),"A. niger; week 3, 28° C.",62.5 to 125 µg/mL
same,Effectiveness as slimicide (inhibitory concentration range),"A. niger; week 4, 28° C.",62.5 to 125 µg/mL
same,minimum inhibitory concentration effective in preventing microbial growth,"Pseudomonas aeruginosa [3]; Week 1, 28° C.",5 (63-125 mcg/gm)
same,minimum inhibitory concentration effective in preventing microbial growth,"Pseudomonas aeruginosa [3]; Week 2, 28° C.",5 (63-125 mcg/gm)
same,minimum inhibitory concentration effective in preventing microbial growth,"Pseudomonas aeruginosa [3]; Week 3, 28° C.",4 (125-250 mcg/gm)
same,minimum inhibitory concentration effective in preventing microbial growth,"Pseudomonas aeruginosa [3]; Week 4, 28° C.",4 (125-250 mcg/gm)
same,minimum inhibitory concentration effective in preventing microbial growth,"Aspergillus niger [4]; Week 1, 28° C.",5 (63-125 mcg/gm)
same,minimum inhibitory concentration effective in preventing microbial growth,"Aspergillus niger [4]; Week 2, 28° C.",4 (125-250 mcg/gm)
same,minimum inhibitory concentration effective in preventing microbial growth,"Aspergillus niger [4]; Week 3, 28° C.",3 (250-500 mcg/gm)
same,minimum inhibitory concentration effective in preventing microbial growth,"Aspergillus niger [4]; Week 4, 28° C.",2 (500-1000 mcg/gm)
same,MIC,Pseudomonas aeruginosa [5]; [7],32 to 63 µg/mL
same,MIC,Pseudomonas aeruginosa [5]; [8],63 to 125 µg/mL
same,MIC,Pseudomonas aeruginosa [5]; [9],125 to 500 µg/mL
same,MIC,Pseudomonas aeruginosa [5]; [10],125 to 500 µg/mL
"CC(=O)C(Cl)C(=O)N(C)C (centres unmarked) [R1=CH3, R2=CH3, 2-chloro-N,N-dimethyl-3-oxobutyramide]",MIC,Proteus vulgaris,76.8 to 384 µg/mL
same,MIC,Staphylococcus aureus,384 to 1920 µg/mL
same,MIC,Pseudomonas aeruginosa [1],384 to 1920 µg/mL
same,MIC,Aspergillus niger [2],384 to 1920 µg/mL
same,MIC,Penicillium piscarium,384 to 1920 µg/mL
same,MIC,Bacillus subtilis,384 to 1920 µg/mL
same,MIC,Aureobasidium pullulans,76.8 to 384 µg/mL
same,MIC,Aspergillus oryzae,384 to 1920 µg/mL
same,MIC,Escherichia coli,76.8 to 384 µg/mL
same,minimum inhibitory concentration effective in preventing microbial growth,"Pseudomonas aeruginosa [3]; Week 1, 28° C.",2 (500-1000 mcg/gm)
same,minimum inhibitory concentration effective in preventing microbial growth,"Pseudomonas aeruginosa [3]; Week 2, 28° C.",2 (500-1000 mcg/gm)
same,minimum inhibitory concentration effective in preventing microbial growth,"Pseudomonas aeruginosa [3]; Week 3, 28° C.",2 (500-1000 mcg/gm)
same,minimum inhibitory concentration effective in preventing microbial growth,"Pseudomonas aeruginosa [3]; Week 4, 28° C.",2 (500-1000 mcg/gm)
same,minimum inhibitory concentration effective in preventing microbial growth,"Aspergillus niger [4]; Week 1, 28° C.",1 (1000-2000 mcg/gm)
same,minimum inhibitory concentration effective in preventing microbial growth,"Aspergillus niger [4]; Week 2, 28° C.",1 (1000-2000 mcg/gm)
same,minimum inhibitory concentration effective in preventing microbial growth,"Aspergillus niger [4]; Week 3, 28° C.",1 (1000-2000 mcg/gm)
same,minimum inhibitory concentration effective in preventing microbial growth,"Aspergillus niger [4]; Week 4, 28° C.",1 (1000-2000 mcg/gm)
same,antimicrobial activity (in words),[6],high level of activity
same,MIC,Pseudomonas aeruginosa [5]; [7],125 to 500 µg/mL
same,MIC,Pseudomonas aeruginosa [5]; [8],250 to 500 µg/mL
same,MIC,Pseudomonas aeruginosa [5]; [9],250 to 500 µg/mL
same,MIC,Pseudomonas aeruginosa [5]; [10],250 to 500 µg/mL
